Drawing on the OligoGym collection, this text covers target mRNA inhibition for 34 sequences.

After the bases stand the sugars from the 5' end (letter, count) and the backbone: PS all phosphorothioate, else s phosphorothioate and o phosphodiester by linkage. Methylation of C is not given here. e = 2'-O-(2-methoxyethyl) (MOE); k = constrained ethyl (cEt); d = 2'-deoxy (DNA); m = 2'-O-methyl

The series has as its target HSD17B13. The following applies: ASO, HepaRG.

With AGATCCCGTTCTTGCC (sugars k3 d10 k3, PS), the target mRNA inhibition (0.02 µM) came out at 0%; the target mRNA inhibition (0.078 µM) amounted to 20%; the target mRNA inhibition (0.313 µM) is 47%; the target mRNA inhibition (1 µM) turned out to be 68%; the target mRNA inhibition (1.25 µM) was found to be 72%; the target mRNA inhibition (5 µM) turned out to be 76%. The sequence ACAAAATCATGGTGTG (sugars k3 d10 k3, PS) registered a target mRNA inhibition (1 µM) of 26%.

For the setting “1 µM”, GTAAGGAATCCCTTCG (sugars k3 d10 k3, PS) had a target mRNA inhibition of 22%. As to “TGGCATGGCTACAGAT (sugars k3 d1 m1 d8 k3, PS)”, for the setting “1 µM”, the target mRNA inhibition came out at 57%. The same measure, in the same setting: in the case of TCCTTTGTATTTCGCT (sugars k3 d10 k3, PS) it was 68%; in that of CTTCCAAGCATTCCAT (sugars k3 d10 k3, PS), 57%. As for AACTACTTCAGTTAGC (sugars k3 d10 k3, PS), the target mRNA inhibition (1 µM) was 53%. Same read-out and setting: as for “AGACTTTGAGACTCTT (sugars kkdddddddddkekek, PS)”, the figure is 55%; as for AGTTTTTAAGAGGCAT (sugars k3 d10 k3, PS), 75%; as for “GAATGCTACTTGAACA (sugars k3 d1 m1 d8 k3, PS)”, 48%. Consider GCTAAAATGGTCATCT (sugars k3 d10 k3, PS), for which the target mRNA inhibition (1 µM) turned out to be 40%.

Sequence TCTAAAGTGCTGGTTG (sugars k3 d10 k3, PS) gave a target mRNA inhibition (1 µM) of 34%.

For the setting “1 µM”, TCAGTAGAGAGCATAA (sugars k3 d10 k3, PS) returned a target mRNA inhibition of 52%.

Regarding “TATTCTGTGGCATGGC (sugars kkdddddddddkekek, PS)”, for the setting “1 µM”, the target mRNA inhibition was 57%. On the same count and under the same terms, in the case of ACCAAGGCCATGACAT (sugars k3 d10 k3, PS) it was 17%; in that of “TCTTAGCTGTGCACTC (sugars k3 d9 k3 e1, PS)”, 52%. Turning to ACTTTTGGTGGACTTC (sugars k3 d10 k3, PS), the target mRNA inhibition (1 µM) turned out to be 0%. On the same count and under the same terms, as for CAAGAGGATAGTCCAT (sugars k3 d10 k3, PS), the figure is 58%; as for GTGCTAAGTAGTAATT (sugars k3 d10 k3, PS), 58%.

With “TTGACTGCTGCTAGTG (sugars kkdddddddddkekek, PS)”, the target mRNA inhibition (1 µM) came to 29%. Still for that read-out and setting: in the case of “AGGCUGTAAGAGTCAG (sugars k3 d1 m1 d8 k3, PS)” it was 52%; in that of CTAGAACACTTGCCTC (sugars k3 d10 k3, PS), 25%.

For the setting “1 µM”, “TTAAAATAGAGTCGGT (sugars k3 d1 m1 d8 k3, PS)” registered a target mRNA inhibition of 70%. Same read-out and setting: as for TTCTACACCACACTAA (sugars k3 d10 k3, PS), the figure is 12%; as for GGCATTAGATGGTAAG (sugars k3 d10 k3, PS), 62%. As to GTTGTTAATGTAGTGT (sugars k3 d10 k3, PS), the target mRNA inhibition amounted to 0% (0.02 µM); 18% (0.078 µM); 42% (0.313 µM); 77% (1 µM); 67% (1.25 µM); 90% (5 µM). For CTAAAGGTTTCTGTTG (sugars k3 d10 k3, PS), for the setting “1 µM”, the target mRNA inhibition came out at 34%. The sequence GACTTTTGTTTGTAGC (sugars k3 d10 k3, PS) gave a target mRNA inhibition (1 µM) of 74%. Consider TGTTAGCTAAGGGAGA (sugars k3 d10 k3, PS), for which the target mRNA inhibition (1 µM) is 0%. In the case of GCTTTAGCTTAAACTC (sugars k3 d10 k3, PS), where the note is “1 µM”, the target mRNA inhibition amounted to 72%.

Sequence CTCCAATACAGGCCAT (sugars k3 d10 k3, PS) came in with a target mRNA inhibition (1 µM) of 20%. Regarding CCAATACAGGCCATAA (sugars k3 d10 k3, PS), the target mRNA inhibition (1 µM) amounted to 38%. Sequence CTCCTGGTACATGCCA (sugars k3 d10 k3, PS) returned a target mRNA inhibition (1 µM) of 47%. The sequence CCTTACCTTGTGCTTG (sugars k3 d10 k3, PS) registered a target mRNA inhibition (1 µM) of 20%.
